In PMC7615311 (Science (New York, N.Y.), 2023):

Columns and labels:
[1] = system: HeLa cells; assay: decryptM protein acetylation profiling in HeLa cells; type: cell-based, human
[2] = system: HeLa cells; assay: decryptM phosphoproteome profiling in HeLa cells; type: cell-based, human
[3] = system: CBP and p300; assay: decryptM; type: cell-based, human; details: read-out: EC50 of inhibition of (auto-)acetylation sites on CBP and p300; HeLa
[4] = system: SNRNP40; assay: decryptM, acetylation of SNRNP40 in HeLa cells; type: cell-based, human; details: read-out: EC50 of SNRNP40 acetylation site
[5] = system: SU-DHL-4 cells; assay: FACS analysis of cytotoxicity; type: cell-based, human; details: SU-DHL-4, FACS
[6] = system: cortactin (CTTN); assay: decryptM, acetylation of HDAC6 substrate cortactin in HeLa cells; type: cell-based, human; details: within the tested dose range
[7] = target: ATR (Homo sapiens, UniProt Q13535); assay: Kinobeads assay, ATR; type: binding
Sequence of ATR (Q13535 whole entry): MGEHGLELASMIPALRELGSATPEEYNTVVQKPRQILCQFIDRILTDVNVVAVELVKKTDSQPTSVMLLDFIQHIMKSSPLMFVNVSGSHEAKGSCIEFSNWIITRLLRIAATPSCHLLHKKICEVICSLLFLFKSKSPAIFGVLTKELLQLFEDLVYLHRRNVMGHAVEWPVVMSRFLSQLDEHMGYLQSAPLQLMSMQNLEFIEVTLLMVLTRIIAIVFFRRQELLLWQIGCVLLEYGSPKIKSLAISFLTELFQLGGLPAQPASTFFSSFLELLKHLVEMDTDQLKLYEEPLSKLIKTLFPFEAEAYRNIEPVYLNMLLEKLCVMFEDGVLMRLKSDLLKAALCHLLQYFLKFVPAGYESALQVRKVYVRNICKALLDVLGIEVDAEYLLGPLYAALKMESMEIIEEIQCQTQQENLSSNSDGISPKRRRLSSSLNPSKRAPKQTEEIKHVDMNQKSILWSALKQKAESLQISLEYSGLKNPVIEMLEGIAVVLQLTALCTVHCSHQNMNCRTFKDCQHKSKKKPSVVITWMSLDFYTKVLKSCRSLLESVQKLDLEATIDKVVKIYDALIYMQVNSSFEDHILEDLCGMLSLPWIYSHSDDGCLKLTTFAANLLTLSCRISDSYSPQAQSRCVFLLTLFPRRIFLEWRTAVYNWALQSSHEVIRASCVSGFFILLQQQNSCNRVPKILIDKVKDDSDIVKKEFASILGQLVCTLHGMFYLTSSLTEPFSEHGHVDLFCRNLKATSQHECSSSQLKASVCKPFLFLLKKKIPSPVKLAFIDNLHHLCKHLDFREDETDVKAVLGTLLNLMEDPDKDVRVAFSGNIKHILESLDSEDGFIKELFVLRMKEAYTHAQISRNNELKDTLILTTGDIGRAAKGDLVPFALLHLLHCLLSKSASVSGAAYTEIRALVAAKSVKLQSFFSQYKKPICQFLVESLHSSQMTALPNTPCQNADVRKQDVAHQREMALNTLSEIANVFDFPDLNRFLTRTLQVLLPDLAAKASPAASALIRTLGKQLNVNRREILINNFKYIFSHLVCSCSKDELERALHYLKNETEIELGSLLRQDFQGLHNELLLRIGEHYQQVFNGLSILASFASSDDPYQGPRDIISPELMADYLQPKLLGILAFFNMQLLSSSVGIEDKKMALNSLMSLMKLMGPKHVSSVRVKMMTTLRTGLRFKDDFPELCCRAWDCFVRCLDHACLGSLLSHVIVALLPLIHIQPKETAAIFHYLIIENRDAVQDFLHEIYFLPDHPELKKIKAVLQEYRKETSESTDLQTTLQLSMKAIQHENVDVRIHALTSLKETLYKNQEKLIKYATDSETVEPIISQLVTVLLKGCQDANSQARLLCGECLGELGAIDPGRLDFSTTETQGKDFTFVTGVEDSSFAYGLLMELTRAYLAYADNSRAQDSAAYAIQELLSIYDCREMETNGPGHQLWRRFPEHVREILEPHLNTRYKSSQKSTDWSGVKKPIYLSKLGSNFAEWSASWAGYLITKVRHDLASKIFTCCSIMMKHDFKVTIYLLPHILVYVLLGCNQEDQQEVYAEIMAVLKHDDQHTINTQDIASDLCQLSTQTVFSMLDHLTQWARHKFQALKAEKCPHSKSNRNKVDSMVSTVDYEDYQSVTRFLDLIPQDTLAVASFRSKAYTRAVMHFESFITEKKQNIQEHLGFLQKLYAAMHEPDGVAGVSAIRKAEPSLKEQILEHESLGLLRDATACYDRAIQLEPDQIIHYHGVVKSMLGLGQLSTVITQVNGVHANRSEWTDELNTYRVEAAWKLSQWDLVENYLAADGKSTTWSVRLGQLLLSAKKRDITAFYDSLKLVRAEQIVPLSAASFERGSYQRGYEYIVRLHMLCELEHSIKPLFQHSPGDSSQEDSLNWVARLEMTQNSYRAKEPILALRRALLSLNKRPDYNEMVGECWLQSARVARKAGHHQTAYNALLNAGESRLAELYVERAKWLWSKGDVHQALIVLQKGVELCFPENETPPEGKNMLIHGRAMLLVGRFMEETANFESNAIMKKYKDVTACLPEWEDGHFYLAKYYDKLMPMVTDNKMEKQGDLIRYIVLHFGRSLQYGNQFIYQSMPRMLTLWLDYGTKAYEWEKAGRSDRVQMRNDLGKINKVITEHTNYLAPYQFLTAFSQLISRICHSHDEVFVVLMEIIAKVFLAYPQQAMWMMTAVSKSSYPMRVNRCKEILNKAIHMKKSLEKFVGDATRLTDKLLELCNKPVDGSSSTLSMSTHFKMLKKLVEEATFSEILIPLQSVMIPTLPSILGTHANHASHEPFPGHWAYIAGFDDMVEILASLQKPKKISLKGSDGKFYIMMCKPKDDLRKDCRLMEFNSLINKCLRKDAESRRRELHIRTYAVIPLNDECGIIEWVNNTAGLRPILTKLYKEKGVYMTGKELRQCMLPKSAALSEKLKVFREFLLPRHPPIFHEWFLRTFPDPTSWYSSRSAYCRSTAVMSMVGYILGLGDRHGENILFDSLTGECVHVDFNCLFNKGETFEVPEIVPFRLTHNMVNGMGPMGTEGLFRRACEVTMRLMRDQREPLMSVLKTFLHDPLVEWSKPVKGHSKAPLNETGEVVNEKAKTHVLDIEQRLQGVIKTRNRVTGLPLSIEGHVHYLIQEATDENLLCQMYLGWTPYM

[8] = system: BT-474; assay: growth reduction, BT-474; type: cell-based; details: Homo sapiens, BT-474, read-out: reduced growth
[9] = system: SK-BR-3; assay: growth reduction, SK-BR-3; type: cell-based; details: Homo sapiens, SK-BR-3, read-out: reduced growth
[10] = system: MDA-MB-175; assay: growth reduction, MDA-MB-175; type: cell-based; details: Homo sapiens, read-out: reduced growth
[11] = system: BT-474 cells; assay: decryptM phosphoproteome profiling in BT-474 cells; type: cell-based, human
[12] = system: SK-BR-3 cells; assay: decryptM phosphoproteome profiling in SK-BR-3 cells; type: cell-based, human
[13] = system: MDA-MB-175 cells; assay: decryptM phosphoproteome profiling in MDA-MB-175 cells; type: cell-based, human
[14] = system: SHC1; assay: decryptM, pY427 on SHC1 in SK-BR-3 cells; type: cell-based; details: Homo sapiens, SK-BR-3, read-out: potency of inhibition of pY427 on SHC1
[15] = system: AKT1S1; assay: decryptM, pT246 on AKT1S1 in SK-BR-3 cells; type: cell-based; details: Homo sapiens, SK-BR-3, read-out: potency of inhibition of pT246 on AKT1S1
[16] = system: A549 lung cancer cells; assay: decryptM phosphoproteome profiling in A549 cells; type: cell-based, human
[17] = system: KYSE-520 esophageal squamous cell carcinoma cell line; assay: decryptM phosphoproteome profiling in KYSE-520 cells; type: cell-based, human; details: KYSE-520, 30 min
[18] = system: K562 chronic myelogenous leukemia cells; assay: decryptM phosphoproteome profiling in K562 cells; type: cell-based, human; details: for number of regulated phosphopeptides: K562, 30 min drug treatment
[19] = system: SU-DHL-4 cells; type: cell-based, human; details: SU-DHL-4, live cell imaging
[20] = system: SU-DHL-4 (B-cell lymphoma); assay: viability assay, SU-DHL-4; type: cell-based, human
[21] = system: Ramos (Burkitt's Lymphoma); assay: viability assay, Ramos; type: cell-based, human
[22] = system: ARH-77 plasma leukemia line; assay: viability assay, ARH-77; type: cell-based, human
[23] = system: SU-DHL-4 cells; assay: two-dimensional decryptM phosphoproteome analysis in SU-DHL-4; type: cell-based, human; details: dose-response at eight time points between 0 min and 24 h
[24] = system: Ramos cells; assay: two-dimensional decryptM phosphoproteome analysis in Ramos; type: cell-based, human; details: dose-response at eight time points between 0 min and 24 h
[25] = system: ARH-77 cells; assay: two-dimensional decryptM phosphoproteome analysis in ARH-77; type: cell-based, human; details: dose-response at eight time points between 0 min and 24 h
[26] = system: MKI67; assay: decryptM, phosphorylation of MKI67 in SU-DHL-4; type: cell-based, human
[27] = system: SYK; assay: decryptM, phosphorylation of SYK in SU-DHL-4; type: cell-based, human
[28] = system: RFTN1; assay: decryptM, RFTN1 phosphorylation at S467 in SU-DHL-4; type: cell-based, human

Question: With `CNC(=O)Nc1ccc2c(c1)CC[C@@]21OC(=O)N(CC(=O)N(Cc2ccc(F)cc2)[C@@H](C)C(F)(F)F)C1=O` [A485] as the molecule, how does the “number of downregulated acetylated peptides” value [1] read?
Answer: Its value is 59.

Question: And the “impact on the phosphoproteome” value [2]?
Answer: Its value is “did not have much impact”.

Question: What about the EC50 [3] of the same molecule?
Answer: Its EC50 is 50 to 200 nM.

Question: And the EC50 [4]?
Answer: The EC50 was 50 nM.

Question: `O=C1/C(=C/c2ccccc2)C(NC2CCCCC2)c2ccccc21` (stereo not shown) [BCI] was tested. Which “cell killing by the drug alone” value [5] did it give?
Answer: Its value is “effective in killing cells”.

Question: `C#Cc1cccc(Nc2ncnc3cc(OC)c(OCCCCCCC(=O)NO)cc23)c1` [CUDC-101] was tested. Which “higher affinity for HDAC targets than for kinase targets in cells” value ([1]; acetylated vs phosphorylated peptides) did it give?
Answer: The value was 100 fold.

Question: And the “number of upregulated acetylated peptides” value ([1]; of the 1,133 measured acetylated peptides)?
Answer: The value was 139.

Question: And the “effect on CTTN acetylation” value [6]?
Answer: The value was “only at substantially higher concentrations”.

Question: `Cn1c(=O)n(-c2ccc(C(C)(C)C#N)cc2)c2c3cc(-c4cnc5ccccc5c4)ccc3ncc21` [Dactolisib] was tested. Which Kd [7] did it give?
Answer: Its Kd is 91 nM.

Question: For `CS(=O)(=O)CCNCc1ccc(-c2ccc3ncnc(Nc4ccc(OCc5cccc(F)c5)c(Cl)c4)c3c2)o1` [Lapatinib], which EC50 [8] is on record?
Answer: The EC50 was 158 nM.

Question: And the EC50 [9]?
Answer: The EC50 was 234 nM.

Question: And the EC50 [10]?
Answer: Its EC50 is 695 nM.

Question: What about the “number of regulated phosphopeptides” value [11] of the same molecule?
Answer: Its value is “hundreds”.

Question: What about the “number of regulated phosphopeptides” value [12] of the same molecule?
Answer: Its value is “five”.

Question: What about the “number of regulated phosphopeptides” value [13] of the same molecule?
Answer: Its value is “hundreds”.

Question: And the EC50 [14]?
Answer: The EC50 was 18 nM.

Question: What about the EC50 [15] of the same molecule?
Answer: The EC50 was 11 nM.

Question: How did the “ERK1 activity via phosphorylation at Y187” value [16] turn out when `NC1(c2ccc(-c3nc4ccn5c(=O)[nH]nc5c4cc3-c3ccccc3)cc2)CCC1` [MK-2206] was run?
Answer: Its value is “induced ERK1 activity”.

Question: What about the “phosphorylation of the AKT substrates AKT1S1 (T2469) and GSK3B (S9)” value [16] of the same molecule?
Answer: The value was “reduced phosphorylation”.

Question: What does the source list for `CC1(N)CCN(c2cnc(-c3cccc(Cl)c3Cl)c(N)n2)CC1` [SHP099]?
Answer: phosphorylation of the EGFR substrate GAB1 [17]: diminished in a dose-dependent fashion; phosphorylation sites indicating EGFR activity [17]: does not inhibit

Question: Which results are given for `Nc1ccn([C@@H]2O[C@H](CO)[C@@H](O)[C@@H]2O)c(=O)n1` [cytarabine]?
Answer: EC50 ([18]; Homo sapiens, K562, 0.5 h, read-out: EC50 of potently regulated phosphopeptides): < 100 nM; number of regulated phosphopeptides [18]: 23

Question: Which results are given for `COc1cc(Nc2ncc(F)c(Nc3ccc4c(n3)N(COP(=O)(O)O)C(=O)C(C)(C)O4)n2)cc(OC)c1OC` [fostamatinib]?
Answer: effect of inhibitor pre-treatment on RTX-mediated cytotoxicity [19]: clear reduction of RTX-mediated cytotoxicity; effect of combination on cytotoxic effect of RTX [5]: diminished the cytotoxic effect of RTX

Question: For `CC(=O)O[C@H]1C(=O)[C@@]2(C)[C@H]([C@H](OC(=O)c3ccccc3)[C@]3(O)C[C@H](OC(=O)[C@H](O)[C@@H](NC(=O)c4ccccc4)c4ccccc4)C(C)=C1C3(C)C)[C@]1(OC(C)=O)CO[C@@H]1C[C@@H]2O` [paclitaxel], which “number of regulated phosphopeptides” value [18] is on record?
Answer: Its value is 7.

Question: Which “response of the phosphoproteome” value ([2]; after 16 hours) does the source give for `C/C=C1\NC(=O)[C@H]2CSSCC/C=C/[C@H](CC(=O)N[C@H](C(C)C)C(=O)N2)OC(=O)[C@H](C(C)C)NC1=O` [romidepsin] here?
Answer: Its value is “broad and potent response”.

Question: What about the “effect on CTTN acetylation” value [6] of the same molecule?
Answer: Its value is “no effect”.

Question: How did the ERK phosphorylation [16] turn out when `Cn1cnc2c(F)c(Nc3ccc(Br)cc3Cl)c(C(=O)NOCCO)cc21` [selumetinib] was run?
Answer: Its ERK phosphorylation is “abrogated ERK phosphorylation”.

Question: What about the “phosphorylation of the AKT substrate BAD at S99” value [16] of the same molecule?
Answer: The value was “induced phosphorylation”.

Question: `CN[C@@H]1C[C@H]2O[C@@](C)([C@@H]1OC)n1c3ccccc3c3c4c(c5c6ccccc6n2c5c31)C(=O)NC4` [staurosporine] was tested. Which “number of regulated phosphopeptides” value [16] did it give?
Answer: Its value is roughly 2500.

Question: How did the “effect of inhibitor pre-treatment on RTX-mediated cytotoxicity” value [19] turn out when `CC(=O)Nc1cccc(-n2c(=O)n(C3CC3)c(=O)c3c(Nc4ccc(I)cc4F)n(C)c(=O)c(C)c32)c1` [trametinib] was run?
Answer: Its value is “clear reduction of RTX-mediated cytotoxicity”.

Question: `O=C(CCCCCCC(=O)Nc1ccccc1)NO` [vorinostat] was tested. Which “effect on protein phosphorylation” value ([2]; within 4 hours) did it give?
Answer: Its value is “no noticeable effect”.

Question: For “RTX: antibody for treatment of B-cell malignancies targeting MS4A1 (CD20)”, which “sensitivity in viability assay” value [20] is on record?
Answer: Its value is “sensitive”.

Question: What about the “sensitivity in viability assay” value [21] of the same molecule?
Answer: The value was “sensitive”.

Question: What about the “sensitivity in viability assay” value [22] of the same molecule?
Answer: Its value is “insensitive”.

Question: What about the phosphoproteome response [23] of the same molecule?
Answer: The phosphoproteome response was “massive responses”.

Question: What about the phosphoproteome response [24] of the same molecule?
Answer: Its phosphoproteome response is “massive responses”.

Question: And the phosphoproteome response [25]?
Answer: Its phosphoproteome response is “silent”.

Question: What about the “downregulation of phosphorylation on the proliferation marker MKI67” value [26] of the same molecule?
Answer: Its value is greater than 10 x.

Question: And the “upregulation of phosphorylation of SYK” value [27]?
Answer: Its value is greater than 10 fold.

Question: What about the “increase of RFTN1 phosphorylation at S467” value ([28]; SU-DHL-4, within 2 min) of the same molecule?
Answer: Its value is 10 fold.

Question: And the “increase of RFTN1 phosphorylation at S467” value ([28]; SU-DHL-4, within 5 min)?
Answer: The value was 30 fold.

Question: For “pertuzumab: breast cancer therapeutic antibody blocking signaling by preventing HER2-HER3 dimerization”, which “number of regulated phosphopeptides” value [11] is on record?
Answer: The value was ~ 150.

Question: And the “number of regulated phosphopeptides” value [12]?
Answer: Its value is ~ 30.

Question: What about the “number of regulated phosphopeptides” value [13] of the same molecule?
Answer: Its value is ~ 150.
